The values that follow come from US10239870B2, “Dopamine D3 receptor antagonists” (priority 2014, dated 2019).

For the assay, the target named is hD2 recombinant receptor (human dopamine receptor type 2, long variant, CHO-Gα16-hD2L membranes) (Homo sapiens (Human), UniProt P14416). Conditions: displacement of 0.08 nM [3H]-Spiperone.

As to `Cl.Cn1c(SCCCN2CC[C@]3(C[C@@H]3c3ccc(C(F)(F)F)cc3)C2)nnc1-c1ccc[nH]c1=O` [Example 125, 3-[4-methyl-5-({3-[(1R,3S)-1-[4-(trifluoromethyl)phenyl]-5-azaspiro[2.4]heptan-5-yl]propyl}sulfanyl)-4H-1,2,4-triazol-3-yl]-1,2-dihydropyridin-2-one hydrochloride], the “D2 pKi” value was 5.48.

Consider `Cn1cccc1-c1nnc(SCCCN2CC[C@]3(CC3c3ccc(C(F)(F)F)cc3)C2)n1C` (stereo partly drawn) [Example 258, (1R,3S/1S,3R)-5-(3-{[4-methyl-5-(1-methyl-1H-pyrrol-2-yl)-4H-1,2,4-triazol-3-yl]sulfanyl}propyl)-1-[4-(trifluoromethyl)phenyl]-5-azaspiro[2.4]heptane], for which the “D2 pKi” value amounted to 6.26.

As for `Cc1cnc(-c2nnc(SCCCN3CC[C@]4(CC4c4ccc(C(F)(F)F)cc4)C3)n2C)cn1` (stereo partly drawn) [Example 223, (1R,3S/1S,3R)-5-(3-{[4-methyl-5-(5-methylpyrazin-2-yl)-4H-1,2,4-triazol-3-yl]sulfanyl}propyl)-1-[4-(trifluoromethyl)phenyl]-5-azaspiro[2.4]heptane], the “D2 pKi” value is listed as 6.00.

Take `Cl.Cn1c(SCCCN2CC[C@]3(C[C@@H]3c3ccc(C(F)(F)F)cc3)C2)nnc1-c1cccn2cnnc12` [Example 267, (1R,3S)-5-{3-[(4-methyl-5-{[1,2,4]triazolo[4,3-a]pyridin-8-yl}-4H-1,2,4-triazol-3-yl)-sulfanyl]propyl}-1-[4-(trifluoromethyl)phenyl]-5-azaspiro[2.4]heptane]: the “D2 pKi” value turned out to be 5.38.

Take `Cc1nnc2ccc(-c3nnc(SCCCN4CC[C@]5(C[C@@H]5c5ccc(C(F)(F)F)cc5)C4)n3C)cn12` [Example 271, (1R,3S)-5-{3-[(4-methyl-5-{3-methyl-[1,2,4]triazolo[4,3-a]pyridin-6-yl}-4H-1,2,4-triazol-3-yl)sulfanyl]propyl}-1-[4-(trifluoromethyl)phenyl]-5-azaspiro[2.4]heptane]: the “D2 pKi” value stood at 5.91.

Take `Cn1c(SCCCN2CC[C@]3(CC3c3ccc(C(F)(F)F)cc3)C2)nnc1-c1cccnc1F` (stereo partly drawn) [Example 173, (1R,3S/1S,3R)-5-(3-{[5-(2-fluoropyridin-3-yl)-4-methyl-4H-1,2,4-triazol-3-yl]sulfanyl}propyl)-1-[4-(trifluoromethyl)phenyl]-5-azaspiro[2.4]heptane]: the “D2 pKi” value is listed as 5.75.

As to `CC(=O)N1CCC(c2nnc(SCCCN3CC[C@]4(C[C@@H]4c4ccc(C(F)(F)F)cc4F)C3)n2C)CC1` [Example 101, 1-{4-[5-({3-[(1S,3S/1R,3R)-1-[2-fluoro-4-(trifluoromethyl)phenyl]-5-azaspiro[2.4]heptan-5-yl]propyl}sulfanyl)-4-methyl-4H-1,2,4-triazol-3-yl]piperidin-1-yl}ethan-1-one], the “D2 pKi” value turned out to be 5.99.

In the case of `Cn1c(SCCCN2CC[C@]3(CC3c3ccc(C(F)(F)F)cc3)C2)nnc1C1CCC(N)CC1` (stereo partly drawn) [Example 108, 4-[4-methyl-5-({3-[(1R,3S/1S,3R)-1-[4-(trifluoromethyl)phenyl]-5-azaspiro[2.4]heptan-5-yl]propyl}sulfanyl)-4H-1,2,4-triazol-3-yl]cyclohexan-1-amine], the “D2 pKi” value is 6.72.

Regarding `CC(=O)N1CC(c2nnc(SCCCN3CC[C@]4(C[C@@H]4c4ccc(C(F)(F)F)cc4)C3)n2C)C1` [Example 107, 1-{3-[4-methyl-5-({3-[(1R,3S/1S,3R)-1-[4-(trifluoromethyl)phenyl]-5-azaspiro[2.4]heptan-5-yl]propyl}sulfanyl)-4H-1,2,4-triazol-3-yl]azetidin-1-yl}ethan-1-one], the “D2 pKi” value came out at 5.56.

Turning to `Cc1cncc(-c2nnc(SCCCN3CC[C@]4(CC4c4ccc(C(F)(F)F)cc4)C3)n2C)n1` (stereo partly drawn) [Example 222, (1R,3S/1S,3R)-5-(3-{[4-methyl-5-(6-methylpyrazin-2-yl)-4H-1,2,4-triazol-3-yl]sulfanyl}propyl)-1-[4-(trifluoromethyl)phenyl]-5-azaspiro[2.4]heptane], the “D2 pKi” value turned out to be 5.91.

Take `Cl.Cn1c(SCCCN2CC[C@]3(C[C@@H]3c3ccc(C(F)(F)F)cc3F)C2)nnc1-c1ccn(C)c(=O)c1` [Example 139, 4-[5-({3-[(1S,3S)-1-[2-fluoro-4-(trifluoromethyl)phenyl]-5-azaspiro[2.4]heptan-5-yl]propyl}sulfanyl)-4-methyl-4H-1,2,4-triazol-3-yl]-1-methyl-1,2-dihydropyridin-2-one hydrochloride]: the “D2 pKi” value came out at 5.83.

As to `Cl.Cn1c(SCCCN2CC[C@]3(C[C@@H]3c3ccc(C(F)(F)F)cc3)C2)nnc1-c1ccc(-c2nnco2)cc1` [Example 274, (1R,3S)-5-[3-({4-methyl-5-[4-(1,3,4-oxadiazol-2-yl)phenyl]-4H-1,2,4-triazol-3-yl}sulfanyl)propyl]-1-[4-(trifluoromethyl)phenyl]-5-azaspiro[2.4]heptane], the “D2 pKi” value is on record as 6.52.

For `CNC(=O)c1cccc(-c2nnc(SCCCN3CC[C@]4(C[C@@H]4c4ccc(C(F)(F)F)cc4)C3)n2C)n1.Cl` [Example 195, N-methyl-6-[4-methyl-5-({3-[(1R,3S)-1-[4-(trifluoromethyl)phenyl]-5-azaspiro[2.4]heptan-5-yl]propyl}sulfanyl)-4H-1,2,4-triazol-3-yl]pyridine-2-carboxamide hydrochloride], the “D2 pKi” value turned out to be 5.84.

For the compound `Cn1c(SCCCN2CC[C@]3(C[C@H]3c3ccc(C(F)(F)F)cc3F)C2)nnc1-c1ccncc1` [Example 164, (1R,3S/1S,3R)-1-[2-fluoro-4-(trifluoromethyl)phenyl]-5-(3-{[4-methyl-5-(pyridin-4-yl)-4H-1,2,4-triazol-3-yl]sulfanyl}propyl)-5-azaspiro[2.4]heptane], the “D2 pKi” value came to 6.23.

Consider `Cc1nccnc1-c1nnc(SCCCN2CC[C@]3(C[C@@H]3c3ccc(C(F)(F)F)cc3)C2)n1C` [Example 224, (1R,3S/1S,3R)-5-(3-{[4-methyl-5-(3-methylpyrazin-2-yl)-4H-1,2,4-triazol-3-yl]sulfanyl}propyl)-1-[4-(trifluoromethyl)phenyl]-5-azaspiro[2.4]heptane], for which the “D2 pKi” value came out at 5.85.

As to `Cn1c(SCCCN2CC[C@]3(CC3c3ccc(C(F)(F)F)cc3)C2)nnc1-c1cccc(=O)[nH]1` (stereo partly drawn) [Example 122, 6-[4-methyl-5-({3-[(1R,3S/1S,3R)-1-[4-(trifluoromethyl)phenyl]-5-azaspiro[2.4]heptan-5-yl]propyl}sulfanyl)-4H-1,2,4-triazol-3-yl]-1,2-dihydropyridin-2-one], the “D2 pKi” value worked out at 6.34.

Regarding `Cn1c(SCCCN2CC[C@]3(CC3c3ccc(C(F)(F)F)cc3)C2)nnc1-c1ccc[nH]c1=O` (stereo partly drawn) [Example 124, 3-[4-methyl-5-({3-[(1R,3S/1S,3R)-1-[4-(trifluoromethyl)phenyl]-5-azaspiro[2.4]heptan-5-yl]propyl}sulfanyl)-4H-1,2,4-triazol-3-yl]-1,2-dihydropyridin-2-one], the “D2 pKi” value is listed as 5.32.

Take `Cl.Cn1c(SCCCN2CC[C@]3(C[C@@H]3c3ccc(C(F)(F)F)cc3)C2)nnc1C1CCC(=O)NC1` (stereo partly drawn) [Example 121, 5-[4-methyl-5-({3-[(1R,3S)-1-[4-(trifluoromethyl)phenyl]-5-azaspiro[2.4]heptan-5-yl]propyl}sulfanyl)-4H-1,2,4-triazol-3-yl]piperidin-2-one hydrochloride]: the “D2 pKi” value is 5.92.

As for `Cc1ncccc1-c1nnc(SCCCN2CC[C@]3(CC3c3ccccc3C(F)(F)F)C2)n1C.Cl.Cl` (stereo partly drawn) [Example 168, (1S,3S/1R,3R)-5-(3-{[4-methyl-5-(2-methylpyridin-3-yl)-4H-1,2,4-triazol-3-yl]sulfanyl}propyl)-1-[2-(trifluoromethyl)phenyl]-5-azaspiro[2.4]heptane dihydrochloride], the “D2 pKi” value was determined as 6.44.

`Cc1nnsc1-c1nnc(SCCCN2CC[C@]3(C[C@@H]3c3ccc(C(F)(F)F)cc3)C2)n1C.Cl` [Example 262, (1R,3S)-5-(3-{[4-methyl-5-(4-methyl-1,2,3-thiadiazol-5-yl)-4H-1,2,4-triazol-3-yl]sulfanyl}propyl)-1-[4-(trifluoromethyl)phenyl]-5-azaspiro[2.4]heptane]: the “D2 pKi” value is recorded as 6.18.

On to `Cn1c(SCCCN2CC[C@]3(CC3c3ccc(C(F)(F)F)cc3F)C2)nnc1-c1cccc(=O)[nH]1` (stereo partly drawn) [Example 123, 6-[5-({3-[(1R,3S/1S,3R)-1-[2-fluoro-4-(trifluoromethyl)phenyl]-5-azaspiro[2.4]heptan-5-yl]propyl}sulfanyl)-4-methyl-4H-1,2,4-triazol-3-yl]-1,2-dihydropyridin-2-one], for which the “D2 pKi” value is on record as 6.00.

Regarding `CN(C)C(=O)c1cccc(-c2nnc(SCCCN3CC[C@]4(C[C@@H]4c4ccc(C(F)(F)F)cc4)C3)n2C)n1.Cl` [Example 197, N,N-dimethyl-6-[4-methyl-5-({3-[(1R,3S)-1-[4-(trifluoromethyl)phenyl]-5-azaspiro[2.4]heptan-5-yl]propyl}sulfanyl)-4H-1,2,4-triazol-3-yl]pyridine-2-carboxamide hydrochloride], the “D2 pKi” value is 5.66.

Take `Cc1ccc(C(N)=O)nc1-c1nnc(SCCCN2CC[C@]3(C[C@@H]3c3ccc(C(F)(F)F)cc3)C2)n1C.Cl` [Example 199, 5-methyl-6-[4-methyl-5-({3-[(1R,3S)-1-[4-(trifluoromethyl)phenyl]-5-azaspiro[2.4]heptan-5-yl]propyl}sulfanyl)-4H-1,2,4-triazol-3-yl]pyridine-2-carboxamide hydrochloride]: the “D2 pKi” value is on record as 5.81.

As for `Cc1ncoc1-c1nnc(SCCCN2CC[C@]3(CC3c3ccc(C(F)(F)F)nc3)C2)n1C` (stereo partly drawn) [Example 61, (1R,3S/1S,3R)-5-(3-{[4-methyl-5-(4-methyl-1,3-oxazol-5-yl)-4H-1,2,4-triazol-3-yl]sulfanyl}propyl)-1-[6-(trifluoromethyl)pyridin-3-yl]-5-azaspiro[2.4]heptane], the “D2 pKi” value is 5.63.

With `Cn1c(SCCCN2CC[C@]3(CC3c3ccc(F)cc3)C2)nnc1-c1ccc(=O)[nH]c1` (stereo partly drawn) [Example 131, 5-[5-({3-[(1R,3S/1S,3R)-1-(4-fluorophenyl)-5-azaspiro[2.4]heptan-5-yl]propyl}sulfanyl)-4-methyl-4H-1,2,4-triazol-3-yl]-1,2-dihydropyridin-2-one], the “D2 pKi” value is reported as 6.16.
